Results from ChEMBL document CHEMBL3137667, “[Drug-induced liver injury; fourteenth updated edition of the bibliographic database of liver injuries and related drugs]” (Gastroenterol Clin Biol, 2004).

What was measured:
[1] = human
[2] = human; remark: listed apart in the source
[3] = human; remark: listed apart in the source
[4] = human; remark: listed apart in the source
[5] = human, serum
[6] = human, serum; remark: listed apart in the source
[7] = human; remark: listed apart in the source
[8] = human; remark: listed apart in the source
[9] = human; remark: listed apart in the source
[10] = Highest frequency of moderate liver toxicity observed during clinical trials, expressed as a percentage. [column '% BIOL' in source]; conditions: human
[11] = human; remark: listed apart in the source
[12] = human, serum, 4383 h
[13] = Highest frequency of acute liver toxicity observed during clinical trials, expressed as a percentage. [column '% AIGUE' in source]; conditions: human
[14] = Comments (NB not yet translated). [column 'COMMENTAIRES' in source]; conditions: human
[15] = Times to onset, minimal and maximal, observed in the indexed observations. [column 'DELAI' in source]; conditions: human
[16] = human; remark: listed apart in the source
[17] = human; remark: listed apart in the source
[18] = Proposed mechanism(s) of liver damage. [column 'MEC' in source]; conditions: human
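Throughout, for Hepatotoxicity (association with vascular disease): count of indexed literature references reporting vascular liver injury in humans, e.g. peliosis hepatitis, hepatic veno-occlusive disease or Budd-Chiari syndrome.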
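Throughout, for Hepatotoxicity (benign tumour): value is a count of indexed literature references citing a benign tumour confirmed by histopathology.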
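Throughout, for Hepatotoxicity (choleostasis): human cholestatic liver injury, shown by histopathology or by peak ALT or AST elevation over alkaline phosphatase ratio below 2, value counts indexed literature reports.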
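Throughout, for Hepatotoxicity (chronic liver disease): chronic liver injury confirmed by histopathology or persistently raised serum aminotransferase activity beyond 6 months, value given as the count of indexed literature references.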
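Throughout, for Hepatotoxicity (cirrhosis): value is a count of indexed literature references reporting cirrhosis confirmed by histopathology.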
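Throughout, for Hepatotoxicity (cytolytic): human cytolytic liver injury, shown by histopathology or by a ratio above 5 of peak ALT or AST elevation to alkaline phosphatase elevation, value counts indexed references.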
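Throughout, for Hepatotoxicity (granulomatous hepatitis): value is a count of indexed literature references reporting granulomatous liver disease confirmed by histopathology.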
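Throughout, for Hepatotoxicity (malignant tumour): malignant tumour confirmed by histopathology, value gives the count of indexed literature references reporting it.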
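Throughout, for Hepatotoxicity (severe hepatitis): human clinical data: severe hepatitis, meaning potentially life-threatening liver failure or clinically observed cases, the value counts how many indexed literature references report it.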
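Throughout, for Hepatotoxicity (steatosis): steatosis confirmed by histopathology, value is the count of indexed references.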

## CCCCNC(=O)NS(=O)(=O)c1ccc(N)cc1 [CARBUTAMIDE]
[1]
  Hepatotoxicity (malignant tumour): 0
[2]
  Hepatotoxicity (cytolytic): 1
[3]
  Hepatotoxicity (steatosis): 0
[4]
  Hepatotoxicity (benign tumour): 0
[5]
  Hepatotoxicity (acute): 5
[6]
  Hepatotoxicity (moderate): 1
[7]
  Hepatotoxicity (association with vascular disease): 0
[8]
  Hepatotoxicity (severe hepatitis): 3
[9]
  Hepatotoxicity (choleostasis): 0
[10]
  Hepatotoxicity (moderate): 30%
[11]
  Hepatotoxicity (cirrhosis): 0
[12]
  Hepatotoxicity (chronic liver disease): 0
[13]
  Hepatotoxicity (acute): 1.5%
[14]
  Hepatotoxicity (comment): RC/METAHEXAMIDE
[15]
  Hepatotoxicity (time to onset): 2 weeks - 4 weeks
[16]
  Hepatotoxicity (animal toxicity known): yes
[17]
  Hepatotoxicity (granulomatous hepatitis): 0

## CCC[C@@H]1C[C@@H](C(=O)N[C@@H]([C@H]2O[C@H](SC)[C@H](O)[C@@H](O)[C@H]2O)[C@H](C)Cl)N(C)C1 [CLINDAMYCIN]
[1]
  Hepatotoxicity (malignant tumour): 0
[2]
  Hepatotoxicity (cytolytic): 2
[3]
  Hepatotoxicity (steatosis): 0
[4]
  Hepatotoxicity (benign tumour): 0
[5]
  Hepatotoxicity (acute): 5
[6]
  Hepatotoxicity (moderate): 15
[8]
  Hepatotoxicity (severe hepatitis): 0
[9]
  Hepatotoxicity (choleostasis): 1
[10]
  Hepatotoxicity (moderate): 52%
[11]
  Hepatotoxicity (cirrhosis): 0
[12]
  Hepatotoxicity (chronic liver disease): 1
[13]
  Hepatotoxicity (acute): 0%
[14]
  Hepatotoxicity (comment): #CBP
[15]
  Hepatotoxicity (time to onset): 2 days - 17 days
[16]
  Hepatotoxicity (animal toxicity known): yes
[17]
  Hepatotoxicity (granulomatous hepatitis): 1

## CCOC(=O)C(C)(C)Oc1ccc(Cl)cc1 [CLOFIBRATE]
[1]
  Hepatotoxicity (malignant tumour): 0
[2]
  Hepatotoxicity (cytolytic): 2
[3]
  Hepatotoxicity (steatosis): 1
[4]
  Hepatotoxicity (benign tumour): 1
[5]
  Hepatotoxicity (acute): 3
[6]
  Hepatotoxicity (moderate): 4
[7]
  Hepatotoxicity (association with vascular disease): 0
[8]
  Hepatotoxicity (severe hepatitis): 0
[9]
  Hepatotoxicity (choleostasis): 1
[10]
  Hepatotoxicity (moderate): 19.7%
[11]
  Hepatotoxicity (cirrhosis): 0
[12]
  Hepatotoxicity (chronic liver disease): 0
[13]
  Hepatotoxicity (acute): 0%
[14]
  Hepatotoxicity (comment): RC/FENOFIBRATE
[15]
  Hepatotoxicity (time to onset): 2 months - 7 years
[16]
  Hepatotoxicity (animal toxicity known): yes
[17]
  Hepatotoxicity (granulomatous hepatitis): 1

## COc1cccc2c1C(=O)c1c(O)c3c(c(O)c1C2=O)C[C@@](O)(C(C)=O)C[C@@H]3O[C@H]1C[C@H](N)[C@H](O)[C@H](C)O1 [DAUNORUBICIN]
[1]
  Hepatotoxicity (malignant tumour): 0
[2]
  Hepatotoxicity (cytolytic): 2
[3]
  Hepatotoxicity (steatosis): 0
[4]
  Hepatotoxicity (benign tumour): 0
[5]
  Hepatotoxicity (acute): 2
[6]
  Hepatotoxicity (moderate): 3
[7]
  Hepatotoxicity (association with vascular disease): 2
[8]
  Hepatotoxicity (severe hepatitis): 0
[9]
  Hepatotoxicity (choleostasis): 0
[10]
  Hepatotoxicity (moderate): 68%
[11]
  Hepatotoxicity (cirrhosis): 0
[12]
  Hepatotoxicity (chronic liver disease): 0
[13]
  Hepatotoxicity (acute): 0%
[14]
  Hepatotoxicity (comment): I/THIOGUANINE
[15]
  Hepatotoxicity (time to onset): 3 cures
[16]
  Hepatotoxicity (animal toxicity known): yes
[17]
  Hepatotoxicity (granulomatous hepatitis): 0

## CNCCCN1c2ccccc2CCc2ccccc21 [DESIPRAMINE]
[1]
  Hepatotoxicity (malignant tumour): 0
[2]; Liver
  Hepatotoxicity (cytolytic): 5
[3]
  Hepatotoxicity (steatosis): 0
[4]
  Hepatotoxicity (benign tumour): 0
[6]
  Hepatotoxicity (moderate): 4
[7]
  Hepatotoxicity (association with vascular disease): 0
[8]; Liver
  Hepatotoxicity (severe hepatitis): 1
[9]; Liver
  Hepatotoxicity (choleostasis): 1
[10]; Liver
  Hepatotoxicity (moderate): 8.7%
[18]; Liver
  Hepatotoxicity (mechanism): Allergic
[11]
  Hepatotoxicity (cirrhosis): 0
[12]
  Hepatotoxicity (chronic liver disease): 0
[13]; Liver
  Hepatotoxicity (acute): 0%
[14]
  Hepatotoxicity (comment): RC/IMIPRAMINE/TRIMIPRAMINE/CYAMEMAZINE
[15]
  Hepatotoxicity (time to onset): 1 week - 1 month
[16]
  Hepatotoxicity (animal toxicity known): yes
[17]; Liver
  Hepatotoxicity (granulomatous hepatitis): 0

## C=CC[C@@H]1/C=C(\C)C[C@H](C)C[C@H](OC)[C@H]2O[C@@](O)(C(=O)C(=O)N3CCCC[C@H]3C(=O)O[C@H](/C(C)=C/[C@@H]3CC[C@@H](O)[C@H](OC)C3)[C@H](C)[C@@H](O)CC1=O)[C@H](C)C[C@@H]2OC [TACROLIMUS ANHYDROUS]
[1]
  Hepatotoxicity (malignant tumour): 0
[2]
  Hepatotoxicity (cytolytic): 0
[3]
  Hepatotoxicity (steatosis): 0
[4]
  Hepatotoxicity (benign tumour): 0
[5]
  Hepatotoxicity (acute): 0
[6]
  Hepatotoxicity (moderate): 1
[7]
  Hepatotoxicity (association with vascular disease): 2
[8]
  Hepatotoxicity (severe hepatitis): 0
[9]
  Hepatotoxicity (choleostasis): 0
[10]
  Hepatotoxicity (moderate): 37%
[11]
  Hepatotoxicity (cirrhosis): 0
[12]
  Hepatotoxicity (chronic liver disease): 0
[13]
  Hepatotoxicity (acute): 0%
[14]
  Hepatotoxicity (comment): MVO PELIOSE
[15]
  Hepatotoxicity (time to onset): 1 month - 3 months
[16]
  Hepatotoxicity (animal toxicity known): yes
[17]
  Hepatotoxicity (granulomatous hepatitis): 0

## CN(C)[C@@H]1C(O)=C(C(N)=O)C(=O)[C@@]2(O)C(O)=C3C(=O)c4c(O)cccc4[C@@](C)(O)[C@H]3C[C@@H]12 [TETRACYCLINE]
[1]
  Hepatotoxicity (malignant tumour): 0
[2]
  Hepatotoxicity (cytolytic): 2
[3]
  Hepatotoxicity (steatosis): 22
[4]
  Hepatotoxicity (benign tumour): 0
[5]
  Hepatotoxicity (acute): 10
[6]
  Hepatotoxicity (moderate): 1
[7]
  Hepatotoxicity (association with vascular disease): 0
[8]
  Hepatotoxicity (severe hepatitis): 7
[9]
  Hepatotoxicity (choleostasis): 8
[10]
  Hepatotoxicity (moderate): 6.3%
[11]
  Hepatotoxicity (cirrhosis): 0
[12]
  Hepatotoxicity (chronic liver disease): 1
[13]
  Hepatotoxicity (acute): 0%
[14]
  Hepatotoxicity (comment): CHOLESTASE_PROLONGEE DUCTOPENIE
[15]
  Hepatotoxicity (time to onset): 3 days - 2 months
[16]
  Hepatotoxicity (animal toxicity known): yes
[17]
  Hepatotoxicity (granulomatous hepatitis): 0

## Clc1ccccc1CN1CCc2sccc2C1 [TICLOPIDINE]
[1]
  Hepatotoxicity (malignant tumour): 0
[2]; Liver
  Hepatotoxicity (cytolytic): 15
[3]
  Hepatotoxicity (steatosis): 1
[4]
  Hepatotoxicity (benign tumour): 0
[7]
  Hepatotoxicity (association with vascular disease): 0
[9]; Liver
  Hepatotoxicity (choleostasis): 56
[18]; Liver
  Hepatotoxicity (mechanism): Allergic
[11]
  Hepatotoxicity (cirrhosis): 0
[12]
  Hepatotoxicity (chronic liver disease): 1
[14]
  Hepatotoxicity (comment): CHOLANGITE CHOLESTASE_PROLONGEE AC_ANTI-N
[15]
  Hepatotoxicity (time to onset): 1 week - 3 years
[16]
  Hepatotoxicity (animal toxicity known): yes
[17]; Liver
  Hepatotoxicity (granulomatous hepatitis): 2

## ClC=C(Cl)Cl [TRICHLOROETHYLENE]
[1]
  Hepatotoxicity (malignant tumour): 0
[2]
  Hepatotoxicity (cytolytic): 14
[3]
  Hepatotoxicity (steatosis): 0
[4]
  Hepatotoxicity (benign tumour): 0
[5]
  Hepatotoxicity (acute): 14
[6]
  Hepatotoxicity (moderate): 1
[7]
  Hepatotoxicity (association with vascular disease): 0
[8]
  Hepatotoxicity (severe hepatitis): 14
[9]
  Hepatotoxicity (choleostasis): 0
[10]
  Hepatotoxicity (moderate): 0%
[18]
  Hepatotoxicity (mechanism): Toxic Metabolite
[11]
  Hepatotoxicity (cirrhosis): 2
[12]
  Hepatotoxicity (chronic liver disease): 0
[13]
  Hepatotoxicity (acute): 0%
[15]
  Hepatotoxicity (time to onset): 1 day - 6 weeks
[16]
  Hepatotoxicity (animal toxicity known): yes
[17]
  Hepatotoxicity (granulomatous hepatitis): 0

## CC[C@]1(O)C[C@@H]2CN(CCc3c([nH]c4ccccc34)[C@@](C(=O)OC)(c3cc4c(cc3OC)N(C)[C@H]3[C@@](O)(C(=O)OC)[C@H](OC(C)=O)[C@]5(CC)C=CCN6CC[C@]43[C@@H]65)C2)C1 [VINBLASTINE]
[1]
  Hepatotoxicity (malignant tumour): 0
[2]
  Hepatotoxicity (cytolytic): 0
[3]
  Hepatotoxicity (steatosis): 0
[4]
  Hepatotoxicity (benign tumour): 0
[5]
  Hepatotoxicity (acute): 1
[6]
  Hepatotoxicity (moderate): 5
[7]
  Hepatotoxicity (association with vascular disease): 1
[8]
  Hepatotoxicity (severe hepatitis): 0
[9]
  Hepatotoxicity (choleostasis): 1
[10]
  Hepatotoxicity (moderate): 22.6%
[11]
  Hepatotoxicity (cirrhosis): 0
[12]
  Hepatotoxicity (chronic liver disease): 0
[13]
  Hepatotoxicity (acute): 0%
[14]
  Hepatotoxicity (comment): I/DOXORUBICINE
[15]
  Hepatotoxicity (time to onset): 2 cures
[16]
  Hepatotoxicity (animal toxicity known): yes
[17]
  Hepatotoxicity (granulomatous hepatitis): 0

## BLEOMYCIN
[1]
  Hepatotoxicity (malignant tumour): 0
[2]
  Hepatotoxicity (cytolytic): 0
[3]
  Hepatotoxicity (steatosis): 0
[4]
  Hepatotoxicity (benign tumour): 0
[5]
  Hepatotoxicity (acute): 0
[6]
  Hepatotoxicity (moderate): 1
[7]
  Hepatotoxicity (association with vascular disease): 0
[8]
  Hepatotoxicity (severe hepatitis): 0
[9]
  Hepatotoxicity (choleostasis): 0
[10]
  Hepatotoxicity (moderate): 0%
[11]
  Hepatotoxicity (cirrhosis): 0
[12]
  Hepatotoxicity (chronic liver disease): 0
[13]
  Hepatotoxicity (acute): 0%
[14]
  Hepatotoxicity (comment): HYPERBILIRUBINEMIE
[16]
  Hepatotoxicity (animal toxicity known): yes
[17]
  Hepatotoxicity (granulomatous hepatitis): 0

## PARAFFIN
[1]
  Hepatotoxicity (malignant tumour): 0
[2]
  Hepatotoxicity (cytolytic): 0
[3]
  Hepatotoxicity (steatosis): 7
[4]
  Hepatotoxicity (benign tumour): 0
[5]
  Hepatotoxicity (acute): 0
[6]
  Hepatotoxicity (moderate): 0
[7]
  Hepatotoxicity (association with vascular disease): 0
[8]
  Hepatotoxicity (severe hepatitis): 0
[9]
  Hepatotoxicity (choleostasis): 0
[10]
  Hepatotoxicity (moderate): 0%
[11]
  Hepatotoxicity (cirrhosis): 0
[12]
  Hepatotoxicity (chronic liver disease): 0
[13]
  Hepatotoxicity (acute): 0%
[14]
  Hepatotoxicity (comment): LIPOGRANULOMES
[15]
  Hepatotoxicity (time to onset): 10 years
[16]
  Hepatotoxicity (animal toxicity known): yes
[17]
  Hepatotoxicity (granulomatous hepatitis): 0
